Common to all, as to format: cell-based
Experiment [1] has as its system ten test organisms (four Gram-negative bacteria, three Gram-positive bacteria, three fungi). From the text: Ten organisms obtained from the American Type Culture Collection (ATCC; Rockville, MD) were used for antimicrobial assays. Four Gram-negative bacteria included Escherichia coli ATCC 25922, Pseudomonas aeruginosa ATCC 27853, Klebsiella oxytoca ATCC 49131, and Proteus vulgaris ATCC 49132. The three Gram-positive bacteria were Staphylococcus aureus 29213, Micrococcus luteus ATCC 49,732, and Enterococcus faecalis ATCC 29212. The three fungi were Candida albicans ATCC 37092, Candida kefyr ATCC 37095, and Candida tropicalis ATCC 37097. The clinical isolates were obtained from Singapore General Hospital (SGH). […]
Antimicrobial Assays. […] After additional incubation at 37 °C for 16–24 h, the diameter of the clear zone surrounding the wells (colony-free) was measured under a microscope. Antimicrobial activities were expressed in units (0.1 mm = 1 unit), and the MICs (in µM) were determined from the x-intercepts of the dose-response curves. […]
The minimum inhibitory concentrations (MICs) of four series of branched peptides and two standards, tachyplesin-1 and the dendrimer D4R, against four Gram-negative bacteria, three Gram-positive bacteria, and three fungi were determined using a two-stage radial diffusion assay in both low- (without NaCl) and high-salt (with 100 mM NaCl) conditions. […]

The subject of experiment [2] is Candida albicans ATCC 37092. In outline: (§1)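 Two-stage radial diffusion: 1–4 × 10^6 CFU/mL organism in underlay gel (10 mM sodium phosphate, 0.03% TSB, 0.02% Tween-20, plus 100 mM NaCl for high-salt). Peptides in seven half-log dilutions diffused 3 h at 37 °C, then 6% TSB agarose overlay, 16–24 h at 37 °C. MIC (µM) taken from x-intercept of clear-zone dose-response.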

In experiment [3] the test system is Candida kefyr ATCC 37095. Summed up: as §1
The test system of experiment [4] is Candida tropicalis ATCC 37097. In outline: as §1
The test system of experiment [5] is Enterococcus faecalis ATCC 29212. In outline: as §1
For experiment [6], the system named is Escherichia coli ATCC 25922. Summed up:
as §1

For experiment [7], the system named is Klebsiella oxytoca ATCC 49131. Summed up:
as §1

Experiment [8] has as its system Micrococcus luteus ATCC 49,732. Summed up:
as §1

Experiment [9] concerns Proteus vulgaris ATCC 49132. Summed up: as §1
The subject of experiment [10] is Pseudomonas aeruginosa ATCC 27853. In outline:
as §1

Experiment [11] has as its system Staphylococcus aureus 29213. Summed up: as §1

Molecules are shown by their SMILES. Like-named read-outs stand apart in the source and are kept apart here. Residues, ends and D or L forms follow the SMILES beside them.

Regarding `CC(C)C[C@H](NC(=O)[C@H](CCCNC(=N)N)NC(=O)[C@H](CCCNC(=N)N)NC(=O)[C@@H](N)Cc1ccc(O)cc1)C(=O)NCCCC[C@H](NC(=O)[C@H](CC(C)C)NC(=O)[C@H](CCCNC(=N)N)NC(=O)[C@H](CCCNC(=N)N)NC(=O)[C@@H](N)Cc1ccc(O)cc1)C(=O)NCCCC[C@H](NC(=O)[C@H](CCCCNC(=O)[C@H](CC(C)C)NC(=O)[C@H](CCCNC(=N)N)NC(=O)[C@H](CCCNC(=N)N)NC(=O)[C@@H](N)Cc1ccc(O)cc1)NC(=O)[C@H](CC(C)C)NC(=O)[C@H](CCCNC(=N)N)NC(=O)[C@H](CCCNC(=N)N)NC(=O)[C@@H](N)Cc1ccc(O)cc1)C(N)=O` [D4Y] (HELM PEPTIDE1{Y.R.R.L.K.K.[am]}|PEPTIDE2{Y.R.R.L}|PEPTIDE3{Y.R.R.L.K}|PEPTIDE4{Y.R.R.L}$PEPTIDE1,PEPTIDE2,5:R3-4:R2|PEPTIDE3,PEPTIDE4,5:R3-4:R2|PEPTIDE1,PEPTIDE3,6:R3-5:R2$$$V2.0; N-terminus and C-terminus assumed), in [1] (3 h), the “MIC in four other organisms, high-salt” value is given as below 10 µM. In experiment [1] (radial diffusion assay, 1% agarose, 10 mM phosphate buffer with 100 mM NaCl, result in words), the “antimicrobial activity under high-salt conditions against six of ten tested organisms” value was “inactive”.
Regarding `CC(=O)NCCC[C@H](NC(=O)[C@H](CCCNC(=N)N)NC(=O)[C@H](Cc1ccc(O)cc1)NC(=O)[C@H](CC(C)C)NC(=O)[C@@H](N)CCCNC(=N)N)C(=O)NCCC[C@H](NC(=O)[C@H](CCCNC(=N)N)NC(=O)[C@H](Cc1ccc(O)cc1)NC(=O)[C@H](CC(C)C)NC(=O)[C@@H](N)CCCNC(=N)N)C(=O)NCCC[C@H](NC(=O)[C@H](CCCNC(=N)N)NC(=O)[C@H](Cc1ccc(O)cc1)NC(=O)[C@H](CC(C)C)NC(=O)[C@@H](N)CCCNC(=N)N)C(N)=O` [iO3R] (HELM PEPTIDE1{R.L.Y.R.[Orn]}|PEPTIDE2{[ac]}|PEPTIDE3{R.L.Y.R.[Orn]}|PEPTIDE4{R.L.Y.R.[Orn].[am]}$PEPTIDE1,PEPTIDE2,5:R3-1:R2|PEPTIDE1,PEPTIDE3,5:R2-5:R3|PEPTIDE3,PEPTIDE4,5:R2-5:R3$$$V2.0), in experiment [2] (ATCC 37092, 3 h), the “MIC, C. albicans, H-Salt” value came to 12.4 µM and the “MIC, C. albicans, L-Salt” value amounted to 4.8 µM. Moreover, in experiment [3] (ATCC 37095, 3 h), the “MIC, C. kefyr, H-Salt” value is reported as 2.0 µM and the “MIC, C. kefyr, L-Salt” value is 1.3 µM. In experiment [4] (ATCC 37097, 3 h), the “MIC, C. tropicalis, H-Salt” value is recorded as 2.3 µM and the “MIC, C. tropicalis, L-Salt” value came to 2.8 µM. For the same molecule, in [5] (ATCC 29212, 3 h), the “MIC, E. faecalis, H-Salt” value is given as above 500 µM and the “MIC, E. faecalis, L-Salt” value was 51.6 µM. Moreover, in [6] (ATCC 25922, 3 h), the “MIC, E. coli, H-Salt” value was determined as 12.8 µM and the “MIC, E. coli, L-Salt” value amounted to 1.3 µM. Also, in [7] (ATCC 49131, 3 h), the “MIC, K. oxytoca, H-Salt” value was found to be 5.4 µM and the “MIC, K. oxytoca, L-Salt” value is recorded as 2.2 µM. In experiment [8] (ATCC 49, 3 h), the “MIC, M. luteus, H-Salt” value came to 8.8 µM and the “MIC, M. luteus, L-Salt” value is 3.1 µM. For the same molecule, in experiment [9] (ATCC 49132, 3 h), the “MIC, P. vulgaris, H-Salt” value was determined as 27.6 µM and the “MIC, P. vulgaris, L-Salt” value amounted to 8.3 µM. For the same molecule, in [10] (ATCC 27853, 3 h), the “MIC, P. aeruginosa, H-Salt” value is reported as 3.2 µM and the “MIC, P. aeruginosa, L-Salt” value amounted to 5.8 µM. For the same molecule, in experiment [11] (29213, 3 h), the “MIC, S. aureus, H-Salt” value came out at 56.2 µM and the “MIC, S. aureus, L-Salt” value came out at 17.2 µM.
Regarding `CC(=O)NCCCC[C@H](NC(=O)[C@H](CCCNC(=N)N)NC(=O)[C@H](Cc1ccc(O)cc1)NC(=O)[C@H](CC(C)C)NC(=O)[C@@H](N)CCCNC(=N)N)C(=O)NCCCC[C@H](NC(=O)[C@H](CCCNC(=N)N)NC(=O)[C@H](Cc1ccc(O)cc1)NC(=O)[C@H](CC(C)C)NC(=O)[C@@H](N)CCCNC(=N)N)C(=O)NCCCC[C@H](NC(=O)[C@H](CCCNC(=N)N)NC(=O)[C@H](Cc1ccc(O)cc1)NC(=O)[C@H](CC(C)C)NC(=O)[C@@H](N)CCCNC(=N)N)C(=O)NCCCC[C@H](NC(=O)[C@H](CCCNC(=N)N)NC(=O)[C@H](Cc1ccc(O)cc1)NC(=O)[C@H](CC(C)C)NC(=O)[C@@H](N)CCCNC(=N)N)C(N)=O` [iK4R] (HELM PEPTIDE1{R.L.Y.R.K}|PEPTIDE2{[ac]}|PEPTIDE3{R.L.Y.R.K}|PEPTIDE4{R.L.Y.R.K}|PEPTIDE5{R.L.Y.R.K.[am]}$PEPTIDE1,PEPTIDE2,5:R3-1:R2|PEPTIDE1,PEPTIDE3,5:R2-5:R3|PEPTIDE3,PEPTIDE4,5:R2-5:R3|PEPTIDE4,PEPTIDE5,5:R2-5:R3$$$V2.0), the “MIC, C. albicans, H-Salt” value in experiment [2] (ATCC 37092, radial diffusion assay, high-salt (100 mM NaCl), triplicates) is 0.9 µM. In addition, the “MIC, C. albicans, L-Salt” value in [2] (ATCC 37092, radial diffusion assay, low-salt (without NaCl), triplicates) amounted to 0.8 µM. In experiment [3] (ATCC 37095, radial diffusion assay, high-salt (100 mM NaCl), triplicates), the “MIC, C. kefyr, H-Salt” value is given as 0.8 µM. For the same molecule, the “MIC, C. kefyr, L-Salt” value in [3] (ATCC 37095, radial diffusion assay, low-salt (without NaCl), triplicates) worked out at 0.8 µM. In [4] (ATCC 37097, radial diffusion assay, high-salt (100 mM NaCl), triplicates), the “MIC, C. tropicalis, H-Salt” value came out at 1.3 µM. Besides, the “MIC, C. tropicalis, L-Salt” value in [4] (ATCC 37097, radial diffusion assay, low-salt (without NaCl), triplicates) worked out at 0.5 µM. Also, the “MIC, E. faecalis, H-Salt” value in experiment [5] (ATCC 29212, radial diffusion assay, high-salt (100 mM NaCl), triplicates) was determined as 1.4 µM. The “MIC, E. faecalis, L-Salt” value in [5] (ATCC 29212, radial diffusion assay, low-salt (without NaCl), triplicates) is on record as 0.8 µM. For the same molecule, in experiment [6] (ATCC 25922, two-stage radial diffusion assay, high-salt (underlay gel 10 mM sodium phosphate, 0.03% TSB, 0.02% Tween-20, with 100 mM NaCl), 37 °C, x-intercept of dose-response curve, triplicates), the “MIC, E. coli, H-Salt” value is on record as 0.4 µM. The “MIC, E. coli, L-Salt” value in experiment [6] (ATCC 25922, two-stage radial diffusion assay, low-salt (underlay gel 10 mM sodium phosphate, 0.03% TSB, 0.02% Tween-20, without NaCl), 37 °C, x-intercept of dose-response curve, triplicates) was 0.4 µM. For the same molecule, the “MIC, K. oxytoca, H-Salt” value in experiment [7] (ATCC 49131, radial diffusion assay, high-salt (100 mM NaCl), triplicates) is reported as 0.7 µM. The “MIC, K. oxytoca, L-Salt” value in experiment [7] (ATCC 49131, radial diffusion assay, low-salt (without NaCl), triplicates) stood at 0.5 µM. For the same molecule, in [8] (ATCC 49,732, radial diffusion assay, high-salt (100 mM NaCl), triplicates), the “MIC, M. luteus, H-Salt” value stood at 0.8 µM. For the same molecule, in experiment [8] (ATCC 49,732, radial diffusion assay, low-salt (without NaCl), triplicates), the “MIC, M. luteus, L-Salt” value was determined as 0.9 µM. In addition, the “MIC, P. vulgaris, H-Salt” value in experiment [9] (ATCC 49132, radial diffusion assay, high-salt (100 mM NaCl), triplicates) is on record as 0.7 µM. In [9] (ATCC 49132, radial diffusion assay, low-salt (without NaCl), triplicates), the “MIC, P. vulgaris, L-Salt” value is 0.8 µM. Besides, in [10] (ATCC 27853, radial diffusion assay, high-salt (100 mM NaCl), triplicates), the “MIC, P. aeruginosa, H-Salt” value is given as 0.7 µM. In addition, in experiment [10] (ATCC 27853, radial diffusion assay, low-salt (without NaCl), triplicates), the “MIC, P. aeruginosa, L-Salt” value is reported as 0.5 µM. Moreover, the “MIC, S. aureus, H-Salt” value in [11] (strain 29213, radial diffusion assay, high-salt (100 mM NaCl), triplicates) was 0.6 µM. In [11] (strain 29213, radial diffusion assay, low-salt (without NaCl), triplicates), the “MIC, S. aureus, L-Salt” value stood at 0.7 µM.

Source of the values: publication PMC10489980, “Design of Potent and Salt-Insensitive Antimicrobial Branched Peptides” (Polymers, 2023).
